Measurements from US12358970B2, “Methods of exogenous drug activation of chemical-induced signaling complexes expressed in engineered cells in vitro and in vivo” (Seattle Children's Hospital, priority 2016, dated 2025).
Entries after “also recorded” stand apart in the source; their conditions may differ.

How the values were obtained:
[1] = test system: gene targeted CD4+ T cells expressing GFP-FOXP3 and IL2R-CISC V3; test: Targeted knock-in of MND promoter and CISC into FOXP3 locus, enrichment of gene targeted cells (GFP-FOXP3 flow cytometry); type: cell-based; details: 15 days culture; 10 nM ligand
Excerpt: The described targeting approach integrates a promoter and both components of an IL2R-CISC V3 into the FOXP3 locus in line with a GFP fusion to the native FOXP3 gene. This architecture is intended to allow for ligand-induced selection of cells which have undergone an accurate gene targeting event.
FIG. 26 depicts a schematic diagram showing an experimental design of targeted knock-in of MND promoter and CISC. This represents an experimental schematic of how a CRISP/Cas9 nuclease is used to induce targeted integration of the cassettes from FIG. 25 into the FOXP3 locus, followed by expansion of the gene targeted cells in the indicated IL2R-CISC ligand.
Following targeted integration into the FOXP3 locus utilizing the indicated approaches (no targeting, or RNP plus each of the cassettes described in FIG. 25), cells were cultured in the indicated conditions for 15 days, and then analyzed by flow cytometry for GFP-FOXP3 expression. […] Flow panels are representative of IL2R-CISC GFP-FOXP3 expression by cells cultured in rapamycin.
Following targeted integration into the FOXP3 locus utilizing the indicated approaches, cells were cultured in the indicated conditions for 15 days, and then analyzed by flow cytometry for GFP-FOXP3 expression.
In addition, the targeted knock-in of MND promoter and CISC was tested to enrich and/or expand gene targeted T cells. […]

[2] = test system: IL2R-CISC V3 expressing human CD4+ T cells; test: Expansion of IL2R-CISC expressing cells in culture (cell numbers); type: cell-based; details: for Dose inducing the most robust cell expansion / Cell expansion: 30 days
[3] = test system: IL2R-CISC expressing primary human T-cells; test: Selective enrichment of IL2R-CISC expressing T cells, flow cytometry of cis-linked GFP/mCherry marker; type: cell-based; details: for mCherry positive cells: IL2R-CISC V3 cells, by 15 days culture in the ligand, starting transduced population 64% mCherry positive
Method: Each architecture of IL2R-CISC (i.e. 1210, 1211, and 1233) was cis-linked together with GFP using 2A sequences, and placed under the control of an MND promoter in a lentiviral expression cassette (as schematized in FIG. 5, bottom). Lentiviral particles from each IL2R-CISC architecture were generated and used to transduce primary human T-cells.
Lentiviral particles from each IL2R-CISC architecture were generated and used to transduce primary human T-cells. CD4+ T cells were activated for 60 hours. […] Lentivirus was transduced with or without beads, using 15 μL of IL2R-CISC and 3 μL of MND-GFP control with protamine sulfate at 4 μg/mL (0.5 mL medium) in a 24-well dish. The cells were then spinoculated at 800 g for 30 minutes at 33° C. followed by the addition of 1.5 mL medium after 4 hours of incubation. […] The GFP signal was determined and the IL2R-CISC level of transduced T cells was determined.
The T cell viability was determined and the expression of GFP+ population and IL2R-CISC expression was determined by using anti-FRB antibody and a secondary APC antibody.

[4] = test system: STAT5 phosphorylation in IL2R-CISC expressing T cells; test: phospho-STAT5 signaling after 20 days of culture; type: cell-based, human; details: mock, GFP and IL2R-CISC cell types
[5] = test system: Akt activation in IL2R-CISC human CD4+ T cells; test: Western blot for Akt activation; type: cell-based; details: 15 days rapamycin 1 nM, 48 h cytokine starvation, stimulation with rapamycin 100 nM for 20 minutes
Method: IL2R-CISC human CD4+ T cells were analyzed following 15 days of rapamycin treatment at 1 nM, following by cytokine starvation for 48 hours.

SMILES | Enrichment of FOXP3 expressing (gene targeted) cells [1] | Dose inducing the most robust cell expansion ([2]; 100 nM AP21967 (vs 10 nM)) | Cell expansion ([2]; AP21967 10 nM and 100 nM) | mCherry positive cells [3] | CD4+ T cell survival ([3]; IL2R-CISC V3 construct, in response to AP21967 (FIG. 15)) | Phosphorylation of STAT5 in response to treatment [4] | Expansion of mCherry positive cell numbers ([2]; 25 days) | Dose inducing the most robust cell expansion ([2]; 1 nM rapamycin (vs 10 nM)) | Cell expansion ([2]; rapamycin 1 nM and 10 nM) | Enrichment for IL2R-CISC expression read out by cis-linked GFP marker ([3]; 1233 architecture, 4 days post transduction, 2 days in rapamycin alone (1 nM)) | Enrichment of the GFP marker ([3]; 1233 architecture, 6 days post transduction, 4 days in rapamycin) | Enrichment of GFP+ cells ([3]; 1233 architecture, 9 days post transduction, 7 days in rapamycin) | Cells expressing the 1233 IL2R-CISC enriched to % of the cell population (GFP+) ([3]; 1233 architecture, 17 days post transduction, 15 days culture in rapamycin alone (1 nM)) | Akt activation [5]
CO[C@H]1[C@@H](O)[C@H](C)C[C@H](C)/C=C/C=C/C=C(\C)[C@@H](c2c[nH]c3c(C)cccc23)C[C@@H]2CC[C@@H](C)[C@@](O)(O2)C(=O)C(=O)N2CCCC[C@H]2C(=O)O[C@H]([C@H](C)C[C@@H]2CC[C@@H](O)[C@H](OC)C2)C[C@H](O)[C@H](C)/C=C(\C)[C@H]1O [AP21967, C-16-(S)-7-methylindolerapamycin] | substantial enrichment of FOXP3 expressing cells | most robust cell expansion | promotes CD4+ T cell proliferation; also recorded: significant AP21967-induced expansion | > 93% | promotes human CD4+ T cell survival | – | – | – | – | – | – | – | – | –
CO[C@H]1C[C@@H]2CC[C@@H](C)[C@@](O)(O2)C(=O)C(=O)N2CCCC[C@H]2C(=O)O[C@H]([C@H](C)C[C@@H]2CC[C@@H](O)[C@H](OC)C2)CC(=O)[C@H](C)/C=C(\C)[C@@H](O)[C@@H](OC)C(=O)[C@H](C)C[C@H](C)/C=C/C=C/C=C/1C [rapamycin, (3S,6R,7E,9R,10R,12R,14S,15E,17E,19E,21S,23S,26R,27R,34aS)-9,10,12,13,14,21,22,23,24,25,26,27,32,33,34,34a-hexadecahydro-9,27-dihydroxy-3-[(1R)-2-[(1S,3R,4R)-4-hydroxy-3-methoxycyclohexyl]-1-methylethyl]-10,21-dimethoxy-6,8,12,14,20,26-hexamethyl-23,27-epoxy-3H-pyrido[2,1-c][1,4] oxaazacyclohentriacontine-1,5,11,28,29 (4H,6H,31H)-pentone] | substantial enrichment of FOXP3 expressing cells | – | – | > 93% | – | only IL2R-CISC expressing cells respond to rapamycin with phosphorylation of STAT5 | significant rapamycin-induced expansion | most robust cell expansion | significant rapamycin-induced expansion | enriched for IL2R-CISC expression; also recorded: beginning to enrich for IL2R-CISC expression | further enrichment of the GFP marker for 1233 | further enrichment of the 1233 GFP+ cells | 97% | Akt activation
